# Like-named read-outs stand apart in the source and are kept apart here.
# Assays:
# [1] = cited from earlier work
# [2] = test system: Caco-2; set-up: method as in earlier work; conditions: enzalutamide PBPK model input; cited from earlier work
# [3] = test system: CYP3A4; conditions: cited from earlier work
# [4] = cited from earlier work; remark: listed apart in the source
# [5] = biological target: T1, CYP3A4 (Homo sapiens, UniProt P08684); conditions: cited from earlier work
# [6] = in vitro; conditions: dog, MDCK
# From the text: (§1) The physiochemical and ADME parameters used for the development of the initial PBPK model are summarized Table S1. […] The volume of distribution at steady state (Vss) was obtained from the clinical absolute bioavailability study (ClinicalTrials.gov Identifier: NCT02390492). A tissue to plasma partition coefficient (Kp) scalar was applied to match the predicted Vss (predicted with in Simcyp using Method 3, Rodgers et al. + ion membrane permeability) to the observed value. The IV clearance determined in the clinical absolute bioavailability study was used (ClinicalTrials.gov Identifier: NCT02390492). […] The CYP3A4 inhibition parameters for competitive inhibition and TDI determined using in vitro assays (Data on file) were incorporated into the model.
# [7] = biological target: T1, CYP3A4; assay: PBPK simulation: midazolam with ipatasertib 600 mg QD
# Protocol: (§2) The age range of 37–76 and the proportion of females of 0.69 were used in the simulation.
# Therefore, sensitivity analyses of inhibitory parameters, where only one parameter (Ki or Kinact) varied at a time, were performed for all three models described above.
# [8] = biological target: T1, CYP3A4; conditions: cited from earlier work; for AUC ratio Observation: midazolam AUC0–∞ with/without ipatasertib 600 mg QD; for AUC ratio Observation / Cmax ratio Observation: geometric mean ratio (90% CI); for Cmax ratio Observation: midazolam Cmax with/without ipatasertib 600 mg QD
# [9] = palbociclib PBPK model input; cited from earlier work
# [10] = biological target: T1, CYP3A4; assay: clinical; conditions: female, in vivo, 125 mg
# [11] = Solubility of ipatasertib; assay type: physicochemical; conditions: across the pH range of 1.1–7.0
# From the text: as §1
# [12] = Physicochemical parameters (LogP, pKa, compound type; in-house data)
# From the text: as §1
# [13] = Blood-to-plasma partition ratio and fraction unbound in plasma; assay type: in vitro ADME; conditions: mean at concentration from 0.1 to 40 µM, data on file, read-out: fu,plasma
# [14] = test system: MDCK (Madin-Darby Canine Kidney); assay: MDCK permeability
# From the text: as §1
# [15] = biological target: T1, CYP3A4
# From the text: as §1, §2
# [16] = Biliary excretion of unchanged ipatasertib; assay type: in vivo; conditions: rats and monkeys dosed with 10 mg/kg and 5 mg/kg
# From the text: (§3) This is due to the difficulty in differentiating between the inhibition and induction from the clinical data and that the PBPK model parameters were optimized to represent a net inhibition effect.
# [17] = biological target: P-glycoprotein (P-gp) (Homo sapiens, UniProt P08183); assay: In vitro P-glycoprotein substrate assessment; assay type: in vitro ADME
# P-glycoprotein (P-gp), sequence (P08183 whole entry): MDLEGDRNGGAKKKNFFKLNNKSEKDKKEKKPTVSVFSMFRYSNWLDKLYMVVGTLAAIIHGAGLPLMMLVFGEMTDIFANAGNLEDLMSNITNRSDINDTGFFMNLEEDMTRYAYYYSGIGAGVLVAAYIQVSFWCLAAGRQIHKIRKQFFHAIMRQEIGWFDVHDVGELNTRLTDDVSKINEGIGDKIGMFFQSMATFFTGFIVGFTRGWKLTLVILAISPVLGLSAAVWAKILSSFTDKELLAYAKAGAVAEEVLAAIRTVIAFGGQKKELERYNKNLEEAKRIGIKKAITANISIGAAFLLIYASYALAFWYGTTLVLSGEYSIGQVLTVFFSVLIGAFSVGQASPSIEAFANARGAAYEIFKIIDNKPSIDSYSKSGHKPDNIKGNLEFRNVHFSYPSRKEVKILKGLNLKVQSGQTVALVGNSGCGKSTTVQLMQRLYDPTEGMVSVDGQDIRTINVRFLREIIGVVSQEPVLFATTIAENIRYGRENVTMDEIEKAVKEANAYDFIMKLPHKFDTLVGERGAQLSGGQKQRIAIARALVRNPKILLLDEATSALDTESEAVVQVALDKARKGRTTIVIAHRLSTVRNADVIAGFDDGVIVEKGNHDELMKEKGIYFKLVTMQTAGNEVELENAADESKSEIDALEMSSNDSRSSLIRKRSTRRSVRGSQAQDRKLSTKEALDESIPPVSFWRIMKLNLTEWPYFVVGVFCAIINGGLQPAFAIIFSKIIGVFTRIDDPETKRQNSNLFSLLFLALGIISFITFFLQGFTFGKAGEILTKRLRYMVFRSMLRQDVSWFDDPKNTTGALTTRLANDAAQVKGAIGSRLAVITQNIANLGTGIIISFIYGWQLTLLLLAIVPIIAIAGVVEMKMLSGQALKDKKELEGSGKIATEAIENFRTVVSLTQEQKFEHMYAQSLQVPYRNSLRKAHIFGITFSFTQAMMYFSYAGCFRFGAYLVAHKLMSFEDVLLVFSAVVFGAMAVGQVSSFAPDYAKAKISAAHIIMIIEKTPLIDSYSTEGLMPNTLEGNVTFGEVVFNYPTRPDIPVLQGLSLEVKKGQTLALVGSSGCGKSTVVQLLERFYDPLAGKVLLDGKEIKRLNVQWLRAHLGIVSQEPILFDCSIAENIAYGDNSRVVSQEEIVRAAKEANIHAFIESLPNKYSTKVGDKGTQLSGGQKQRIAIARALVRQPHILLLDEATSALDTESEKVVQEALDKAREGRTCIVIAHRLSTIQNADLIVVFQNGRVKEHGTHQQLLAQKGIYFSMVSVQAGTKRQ
# From the text: as §3
# [18] = test system: CYP3A4; assay: In vitro CYP3A4 induction; assay type: in vitro ADME
# From the text: as §3
# [19] = male, human, in vivo, iv
# [20] = cited from earlier work; for Observed AUC0-∞ / Observed AUC0-24: geometric mean (CV%); for Observed AUC0-24: Steady state
# [21] = cited from earlier work; remark: listed apart in the source
# [22] = clinical; conditions: human, in vivo, po, 200 mg
# [23] = biological target: T1, CYP3A4; conditions: ipatasertib 100 mg single oral dose with and without itraconazole 200 mg QD, cited from earlier work
# [24] = Human mass balance and absolute bioavailability study (NCT02390492)
# [25] = biological target: T1, CYP3A4; assay: Clinical study: ipatasertib 300 mg QD with palbociclib (NCT04060862); conditions: in vivo
# [26] = enzalutamide 160 mg QD with ipatasertib, clinical observation, geometric mean (CV%)
# T1 sequence (P08684 whole entry): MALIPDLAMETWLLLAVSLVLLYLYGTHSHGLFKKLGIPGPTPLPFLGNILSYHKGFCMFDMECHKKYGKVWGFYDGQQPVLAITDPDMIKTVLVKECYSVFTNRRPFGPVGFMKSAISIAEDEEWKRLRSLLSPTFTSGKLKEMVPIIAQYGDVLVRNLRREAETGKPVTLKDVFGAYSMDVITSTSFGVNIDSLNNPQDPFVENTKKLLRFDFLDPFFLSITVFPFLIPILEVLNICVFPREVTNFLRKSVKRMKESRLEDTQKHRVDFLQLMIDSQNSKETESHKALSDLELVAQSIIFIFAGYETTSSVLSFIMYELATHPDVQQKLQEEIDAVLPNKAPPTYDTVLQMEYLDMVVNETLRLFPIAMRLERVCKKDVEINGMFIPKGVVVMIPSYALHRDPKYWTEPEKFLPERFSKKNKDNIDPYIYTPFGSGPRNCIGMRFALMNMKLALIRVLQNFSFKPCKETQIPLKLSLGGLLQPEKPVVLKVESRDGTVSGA
smiles,measurement,setting,value
CNC(=O)c1ccc(N2C(=S)N(c3ccc(C#N)c(C(F)(F)F)c3)C(=O)C2(C)C)cc1F [Enzalutamide],"fu, plasma",[1]; enzalutamide PBPK model input,0.024
same,Caco-2 permeability,[2],31 10^-6 cm/s
same,Ind max (CYP3A4 induction),[3]; enzalutamide PBPK model input,8
same,EC50,"[3]; enzalutamide PBPK model input, read-out: Ind C50 (CYP3A4 induction)",2.5 µM
same,Ki,"[3]; enzalutamide PBPK model input, read-out: Ki (CYP3A4 competitive inhibition)",42 µM
same,CLpo,"[4]; enzalutamide, in vivo clearance",0.54 L/h
same,Observed AUCss,[5]; [26],341 (25%) µg*hr/ml
same,Observed Cmax,[5]; [26],17 (22%) µg/ml
COCCc1ccc(OCC(O)CNC(C)C)cc1 (stereo not drawn) [metoprolol],Papp,[6],24.8 ×10⁻⁶ cm/s
Cc1ncc2n1-c1ccc(Cl)cc1C(c1ccccc1F)=NC2 [Midazolam],Papp,[6],18.8 ×10⁻⁶ cm/s
same,AUC P/O,"[7]; predicted/observed midazolam AUC0–∞, midazolam 2 mg with and without ipatasertib 600 mg QD",0.59
same,AUC ratio P/O,"[7]; predicted/observed midazolam AUC ratio, ipatasertib 600 mg QD",1.00
same,Cmax ratio P/O,"[7]; predicted/observed midazolam Cmax ratio, ipatasertib 600 mg QD",1.33
same,AUC ratio Observation,[8],2.22 (1.57–3.12)
same,AUC ratio Observation,[8]; listed as midazolam,2.22
same,AUC Observation,"[8]; midazolam AUC0–∞, midazolam 2 mg single oral dose with and without ipatasertib 600 mg QD, geometric mean (CV%)",39.3 (58.4%) ng* h/ml
same,Cmax ratio Observation,[8],1.29 (0.97–1.71)
same,Cmax ratio Observation,[8]; listed as midazolam,1.29
same,Cmax Observation,"[8]; midazolam Cmax, midazolam 2 mg single oral dose with and without ipatasertib 600 mg QD, geometric mean (CV%)",15.0 (51.6%) ng/ml
same,Tmax Observation,"[8]; midazolam Tmax, midazolam 2 mg single oral dose with and without ipatasertib 600 mg QD, median (range)",0.50 (0.50–1.00) h
CC(=O)c1c(C)c2cnc(Nc3ccc(N4CCNCC4)cn3)nc2n(C2CCCC2)c1=O [Palbociclib],logP,[9],0.99
same,"fu, plasma",[1]; palbociclib PBPK model input,0.147
same,Kapp (CYP3A4 time-dependent inhibition),[3]; palbociclib PBPK model input,10 µM
same,CLR,[4]; palbociclib PBPK model input,6.6 L/h
same,Fa,[4]; palbociclib PBPK model input,0.85
same,Ka,[4]; palbociclib PBPK model input,0.12 h⁻¹
same,Vss,[4]; palbociclib PBPK model input,14.558 L/kg
same,AUC,[10],2560 ng·h/mL
same,Cmax,[10],123 ng/mL
CC(C)NC[C@@H](C(=O)N1CCN(c2ncnc3c2[C@H](C)C[C@H]3O)CC1)c1ccc(Cl)cc1 [Ipatasertib],solubility,[11],> 10000 µg/mL
same,Compound type,[12],Diprotic base
same,logP,[12],3
same,pKa,[12]; read-out: pKa1,9
same,pKa,[12]; read-out: pKa2,4.9
same,fraction unbound,[13],0.63
same,Papp,[6],3.55 ×10⁻⁶ cm/s
same,permeability (in words),[14],moderate permeability
same,CYP3A4 substrate/inhibitor status,[15],a substrate and a competitive and time-dependent inhibitor (TDI) of CYP3A4
same,Kapp (CYP3A4 time-dependent inhibition),[15],9.66 µM
same,unchanged drug found in bile,[16],2.9–5.8%
same,P-gp substrate status,[17],substrate of P-glycoprotein (P-gp)
same,CYP3A4 induction in vitro,[18],weak CYP3A4 inducer in vitro
same,CLiv,[19],100 L/h
same,dose proportionality of exposure,"[20]; 200 to 800 mg, single dose or multiple doses",approximately dose-proportional
same,Observed AUC0-∞,"[20]; Day 1, 25 mg oral (n=3)",34.0 (107%) ng*hr/ml
same,Observed AUC0-∞,"[20]; Day 1, 50 mg oral (n=3)",84.6 (50.1%) ng*hr/ml
same,Observed AUC0-∞,"[20]; Day 1, 100 mg oral (n=3)",365 (21.5%) ng*hr/ml
same,Observed AUC0-∞,"[20]; Day 1, 200 mg oral (n=3)",999 (21.2%) ng*hr/ml
same,Observed AUC0-∞,"[20]; Day 1, 400 mg oral (n=3)",2230 (14.1%) ng*hr/ml
same,Observed AUC0-∞,"[20]; Day 1, 600 mg oral (n=7)",3460 (36.4%) ng*hr/ml
same,Observed AUC0-∞,"[20]; Day 1, 800 mg oral (n=7)",4100 (68.6%) ng*hr/ml
same,Observed AUC0-24,[20]; 25 mg (n=3),88.3 (77.8%) ng*hr/ml
same,Observed AUC0-24,[20]; 50 mg (n=3),171 (11%) ng*hr/ml
same,Observed AUC0-24,[20]; 200 mg (n=3),1770 (14.6%) ng*hr/ml
same,Observed AUC0-24,[20]; 400 mg (n=3),3210 (22.3%) ng*hr/ml
same,Observed AUC0-24,[20]; 600 mg (n=7),4450 (43.8%) ng*hr/ml
same,Observed AUC0-24,[20]; 800 mg (n=7),6670 (66.1%) ng*hr/ml
same,dose proportionality of exposure,[20]; low doses of 25–50 mg,more than dose-proportional increase in exposures
same,effect of food on exposures,[21],Food does not affect exposures
same,CL renal,[22],322 mL/min
same,AUC Observation,"[23]; ipatasertib AUC0–∞, geometric mean (CV%)",327 (26.4%) ng* h/ml
same,Cmax Observation,"[23]; ipatasertib Cmax, geometric mean (CV%)",44.9 (35.9%) ng/ml
same,Tmax Observation,"[23]; ipatasertib Tmax, median (range)",1.07 (0.50–3.03) h
same,observed decrease in ipatasertib Cmax,"[5]; in the presence of enzalutamide, patients with prostate cancer",~53%
same,AUC Observation,"[5]; ipatasertib AUC0–24 h, ipatasertib 400 mg QD with and without enzalutamide 160 mg QD, geometric mean (CV%)",2170 (53.8%) ng* h/ml
same,Cmax Observation,"[5]; ipatasertib Cmax, ipatasertib 400 mg QD with and without enzalutamide 160 mg QD, patients with prostate cancer, geometric mean (CV%)",284 (66.5%) ng/ml
same,Tmax Observation,"[5]; ipatasertib Tmax, ipatasertib 400 mg QD with and without enzalutamide 160 mg QD, median (range)",1.85 (0.63–4.00) h
same,Vd,"[24]; human, in vivo, intravenous, 0.08 mg",39.1 L/kg
same,bioavailability,"[24]; human, in vivo, oral, 200 mg",34%
same,unchanged drug eliminated in urine,[24]; single 200 mg oral dose,~8%
same,AUC,[25],2510 ng·h/mL
same,Cmax,[25],314 ng/mL
same,Tmax,[25],1.5 h
CN/C(=N/CCSCc1nc[nH]c1C)NC#N [cimetidine],Papp,[6],1 ×10⁻⁶ cm/s
CC(C)NCC(O)COc1cccc2ccccc12 (stereo not drawn) [propranolol],Papp,[6],20.9 ×10⁻⁶ cm/s

# Source: paper PMC9054915 (Cancer Chemotherapy and Pharmacology, 2022)
